Series [1] is described as follows: in vitro. Particulars: human.
A short description of series [2]: Cytotoxicity (CC50) in multicycle CPE reduction assay, MTS. Particulars: human.
For series [3], the system named is HRV 21. Briefly: Cytopathic effect (CPE) inhibition assay. It counts as cell-based, human rhinovirus. Conditions: Human rhinovirus sp., 72 h; host cell HeLa, 3 days, MEM/2% FBS, MTT assay; read-out: EC50 HRV 21. On the technique in general: Cytopathic effects are the visible damage that an infection or toxin causes in cultured cells.
The subject of series [4] is HRV 14. Briefly: Cytopathic effect (CPE) inhibition assay. It counts as cell-based, human rhinovirus. Conditions: Human rhinovirus sp., HeLa, 72 h, host cell HeLa, 3 days, MEM/2% FBS, MTT assay; read-out: EC50 HRV 14.
Series [5] relates to coxsackievirus B1 (Cox B1). The experiment in a line: Multicycle cytopathic effect (CPE) reduction assay. The series is classed as cell-based. Particulars: Enterovirus B, B1, 72 h, read-out: EC50 CoxB1.
The test system of series [6] is coxsackievirus B3 (Cox B3). Briefly: Multicycle cytopathic effect (CPE) reduction assay. It counts as cell-based. Particulars: Enterovirus B, B3, 72 h, read-out: EC50 CoxB3.
The test system of series [7] is poliovirus 3 (PV3). The experiment in a line: microbe, parasite or virus in culture. Particulars: Enterovirus C, 72 h, read-out: EC50 PV3. The series is classed as cell-based.
In series [8] the test system is HRV 71. The experiment in a line: Cytopathic effect (CPE) inhibition assay. It counts as cell-based, human rhinovirus. Conditions: Human rhinovirus sp., 72 h; host cell HeLa, 3 days, MEM/2% FBS, MTT assay; read-out: EC50 HRV 71.

For orientation: EC50 means the midpoint of the concentration-response curve.

≈ marks a conversion by molar mass, not a printed value.

Take `CCCNC(=O)OC12C(=O)c3ccccc3C1(O)Oc1cc(C(C)C)ccc12` (stereo not drawn) [Example 18, 4b-hydroxy-7-isopropyl-10-oxo-4b, 10-dihydro-9bH-indeno[1,2-b]benzofuran-9b-yl propyl carbamate]: the CC50 in series [1] was greater than 10 µg/mL. In series [2], this compound returned a CC50 at 3 days greater than 10 µg/mL. Besides, the EC50 in series [3] is greater than 10 µg/mL; in series [4], greater than 10 µg/mL; in series [5] it was less than 10 µg/mL; in series [6], less than 10 µg/mL; in series [7], greater than 10 µg/mL; in series [8], greater than 10 µg/mL.
With `CC(C)c1ccc2c(c1)OC1(O)c3ccccc3C(=O)C21NC(=O)C(=O)c1ccco1` (stereo not drawn) [Example 7, 2-(furan-2-yl)-N-(4b-hydroxy-7-isopropyl-10-oxo-9b, 10-dihydro-4bH-indeno[1,2-b]benzofuran-9b-yl)-2-oxo acetamide], the CC50 in series [1] was greater than 10 µg/mL. For the same compound, the CC50 at 3 days in series [2] is greater than 10 µg/mL. Further, the EC50 in series [3] was greater than 10 µg/mL; in series [4], less than 0.1 µg/mL; in series [5] it was less than 0.01 µg/mL; in series [6], less than 0.01 µg/mL; in series [7], less than 1 µg/mL; in series [8], greater than 10 µg/mL.
`Cc1cc(C)c(C(=O)C(=O)NC23C(=O)c4c(N)cccc4C2(O)Oc2cc(C(C)C)ccc23)c(C)c1` (stereo not drawn) [Example 54, N-(1-amino-4b-hydroxy-7-isopropyl-10-oxo-4b, 10-dihydro-9bH-indeno[1,2-b]benzofuran-9b-yl)-2-mesityl-2-oxo acetamide] showed a CC50 in series [1] of 8.6 µg/mL (≈ 17.7 µM). In addition, the CC50 at 3 days in series [2] is greater than 10 µg/mL. Further, the EC50 in series [3] is greater than 8.6 µg/mL; in series [4] it was less than 1 µg/mL; in series [5] it was less than 0.1 µg/mL; in series [6] it was less than 0.1 µg/mL; in series [7] it was less than 10 µg/mL; in series [8] it was greater than 8.6 µg/mL.
On to `CCC(C)C(=O)C(=O)NC12C(=O)c3cccc([N+](=O)[O-])c3C1(O)Oc1cc(C(C)C)ccc12` (stereo not drawn) [Example 28, N-(4b-hydroxy-7-isopropyl-4-nitro-10-oxo-4b, 10-dihydro-9bH-indeno[1,2-b]benzofuran-9b-yl)-3 methyl-2-oxo pentanamide], for which the CC50 in series [1] was greater than 10 µg/mL. In series [2], this compound returned a CC50 at 3 days greater than 10 µg/mL. The EC50 was greater than 10 µg/mL in series [3]; less than 10 µg/mL in series [4]; less than 1 µg/mL in series [5]; less than 10 µg/mL in series [6]; greater than 10 µg/mL in series [7]; greater than 10 µg/mL in series [8].
The compound `COc1ccc(/C=C/C(=O)C(=O)NC23C(=O)c4ccccc4C2(O)Oc2cc(C(C)C)ccc23)cc1OC` (stereo not drawn) [Example 24, (E)-4-(3,4-dimethoxyphenyl)-N-(4b-hydroxy-7-isopropyl-10-oxo-4b, 10-dihydro-9bH-indeno[1,2-b]benzofuran-9b-yl)-2-oxobut-3-enamide] showed a CC50 in series [1] greater than 10 µg/mL. Further, the CC50 at 3 days in series [2] is greater than 10 µg/mL. Besides, the EC50 in series [3] was greater than 10 µg/mL; in series [4], less than 10 µg/mL; in series [5], less than 0.1 µg/mL; in series [6], less than 0.1 µg/mL; in series [7], less than 10 µg/mL; in series [8], greater than 10 µg/mL.
As for `CCCC(=O)C(=O)NC12C(=O)c3ccccc3C1(O)Oc1cc(C(C)C)ccc12` (stereo not drawn) [Example 5, N-(4b-hydroxy-7-isopropyl-10-oxo-9b, 10-dihydro-4bH-indeno[1,2-b]benzofuran-9b-yl)-2-oxo pentanamide], the CC50 in series [1] was 8.49 µg/mL (≈ 21.6 µM). For the same compound, the CC50 at 3 days in series [2] was greater than 10 µg/mL. In addition, the EC50 was greater than 8.49 µg/mL in series [3]; less than 0.1 µg/mL in series [4]; less than 0.01 µg/mL in series [5]; less than 0.01 µg/mL in series [6]; less than 0.1 µg/mL in series [7]; greater than 8.49 µg/mL in series [8].
In series [1], `CC(C)c1ccc2c(c1)OC1(O)c3cccc(N)c3C(=O)C21NC(=O)C(=O)c1ccccc1` (stereo not drawn) [Example 11, N-(1-amino-4b-hydroxy-7-isopropyl-10-oxo-9b, 10-dihydro-4bH-indeno[1,2-b]benzofuran-9b-yl)-2-oxo-2-phenyl acetamide] returned a CC50 of 7.82 µg/mL (≈ 17.7 µM). The compound also showed a CC50 at 3 days in series [2] of 8.72 µg/mL (≈ 19.7 µM). Moreover, the EC50 in series [3] was 3.13 µg/mL (≈ 7.07 µM); in series [4] it was less than 0.1 µg/mL; in series [5] it was less than 0.01 µg/mL; in series [6] it was less than 0.01 µg/mL; in series [7] it was less than 0.1 µg/mL; in series [8], greater than 7.82 µg/mL.
In series [1], `CCCC(=O)C(=O)NC12C(=O)c3c(N)cccc3C1(O)Oc1cc(C(C)C)ccc12` (stereo not drawn) [Example 52, N-(1-amino-4b-hydroxy-7-isopropyl-10-oxo-4b, 10-dihydro-9bH-indeno[1,2-b]benzofuran-9b-yl)-2-oxo pentanamide] showed a CC50 greater than 10 µg/mL. Moreover, in series [2], the CC50 at 3 days is greater than 10 µg/mL. Also, the 50% effective concentration (EC50) in series [3] is greater than 10 µg/mL; in series [4], less than 0.01 µg/mL; in series [5], less than 0.01 µg/mL; in series [6], less than 0.01 µg/mL; in series [7] it was less than 0.1 µg/mL; in series [8] it was greater than 10 µg/mL.
`CC(C)c1ccc2c(c1)OC1(O)c3ccccc3C(=O)C21NC(=O)C(=O)N(C)C` (stereo not drawn) [Example 21, N1-(4b-hydroxy-7-isopropyl-10-oxo-4b, 10-dihydro-9bH-indeno[1,2-b]benzofuran-9b-yl)-N2, N2-dimethyl oxal amide] registered a CC50 in series [1] greater than 10 µg/mL. The compound further came in with a CC50 at 3 days in series [2] greater than 10 µg/mL. Moreover, the EC50 in series [3] was greater than 10 µg/mL; in series [4] it was less than 1 µg/mL; in series [5], less than 0.1 µg/mL; in series [6] it was less than 0.1 µg/mL; in series [7], less than 10 µg/mL; in series [8], greater than 10 µg/mL.
With `CC(C)c1ccc2c(c1)OC1(O)c3ccccc3C(=O)C21NC(=O)C(=O)c1c[nH]c2ccccc12` (stereo not drawn) [Example 1, N-(4b-hydroxy-7-isopropyl-10-oxo-9b, 10-dihydro-4bH-benzo[d]indeno[1,2-b]furan-9b-yl)-2-(1H-indol-3-yl)-2-oxo acetamide], the CC50 in series [1] was found to be 7.91 µg/mL (≈ 17 µM). In series [2], this compound displayed a CC50 at 3 days of 8.57 µg/mL (≈ 18.4 µM). Besides, the half-maximal effective concentration (EC50) in series [3] is greater than 7.91 µg/mL; in series [4], less than 1 µg/mL; in series [5] it was 0.017 µg/mL (≈ 0.0364 µM); in series [6], 0.061 µg/mL (≈ 0.131 µM); in series [7], 1.1 µg/mL (≈ 2.36 µM); in series [8], greater than 7.91 µg/mL.
In series [1], `CC(C)c1ccc2c(c1)OC1(O)c3c(cccc3[N+](=O)[O-])C(=O)C21NC(=O)C(=O)c1c[nH]c2ccccc12` (stereo not drawn) [Example 8, N-(4b-hydroxy-7-isopropyl-4-nitro-10-oxo-9b, 10-dihydro-4bH-indeno[1,2-b]benzofuran-9b-yl)-2-(1H-indol-3-yl)-2-oxo acetamide] returned a CC50 greater than 10 µg/mL. The CC50 at 3 days in series [2] is greater than 10 µg/mL. In addition, the concentration giving a half-maximal response (EC50) in series [3] is greater than 10 µg/mL; in series [4] it was 2.31 µg/mL (≈ 4.52 µM); in series [5] it was 0.56 µg/mL (≈ 1.09 µM); in series [6], 1.82 µg/mL (≈ 3.56 µM); in series [7], 9.8 µg/mL (≈ 19.2 µM); in series [8], greater than 10 µg/mL.
On to `CC(C)c1ccc2c(c1)OC1(O)c3ccccc3C(=O)C21NC(=O)C(=O)CCc1ccccc1` (stereo not drawn) [Example 39, N-(4b-hydroxy-7-isopropyl-10-oxo-4b, 10-dihydro-9bH-indeno[1,2-b]benzofuran-9b-yl)-2-oxo-4-phenyl butanamide], for which, in series [1], the CC50 turned out to be 9.5 µg/mL (≈ 20.9 µM). In series [2], this compound gave a CC50 at 3 days greater than 10 µg/mL. In addition, the EC50 is greater than 9.5 µg/mL in series [3]; less than 10 µg/mL in series [4]; less than 0.1 µg/mL in series [5]; less than 0.1 µg/mL in series [6]; less than 10 µg/mL in series [7]; greater than 9.5 µg/mL in series [8].
The compound `CC(=O)C(=O)NC12C(=O)c3ccccc3C1(O)Oc1cc(C)c(C)cc12` (stereo not drawn) [Example 14, N-(4b-hydroxy-7,8-dimethyl-10-oxo-9b, 10-dihydro-4bH-indeno[1,2-b]benzofuran-9b-yl)-2-oxo propanamide] had a CC50 in series [1] of 8.87 µg/mL (≈ 25.2 µM). The CC50 at 3 days in series [2] is 8.57 µg/mL (≈ 24.4 µM). Besides, the EC50 is greater than 8.87 µg/mL in series [3]; 1.82 µg/mL (≈ 5.18 µM) in series [4]; 0.015 µg/mL (≈ 0.0427 µM) in series [5]; 0.067 µg/mL (≈ 0.191 µM) in series [6]; greater than 8.57 µg/mL in series [7]; greater than 8.87 µg/mL in series [8].
In series [1], `CC(C)c1ccc2c(c1)OC1(O)c3cccc(N)c3C(=O)C21NC(=O)C(=O)c1c[nH]c2ccccc12` (stereo not drawn) [Example 10, N-(1-amino-4b-hydroxy-7-isopropyl-10-oxo-9b, 10-dihydro-4bH-indeno[1,2-b]benzofuran-9b-yl)-2-(1H-indo1-3-yl)-2-oxo acetamide] registered a CC50 of 4.89 µg/mL (≈ 10.2 µM). In addition, the CC50 at 3 days in series [2] turned out to be 8.33 µg/mL (≈ 17.3 µM). Also, the EC50 in series [3] was greater than 4.89 µg/mL; in series [4], less than 0.1 µg/mL; in series [5], less than 0.01 µg/mL; in series [6], 0.014 µg/mL (≈ 0.0291 µM); in series [7], less than 0.1 µg/mL; in series [8], greater than 4.89 µg/mL.
`CC(C)c1ccc2c(c1)OC1(O)c3c(cccc3[N+](=O)[O-])C(=O)C21NC(=O)C(=O)c1ccccc1` (stereo not drawn) [Example 16, N-(4b-hydroxy-7-isopropyl-4-nitro-10-oxo-9b, 10-dihydro-4bH-indeno[1,2-b]benzofuran-9b-yl)-2-oxo-2-phenyl acetamide] had a CC50 in series [1] greater than 10 µg/mL. In series [2], this compound returned a CC50 at 3 days greater than 10 µg/mL. Moreover, the EC50 is greater than 10 µg/mL in series [3]; 1.77 µg/mL (≈ 3.75 µM) in series [4]; 0.078 µg/mL (≈ 0.165 µM) in series [5]; 0.33 µg/mL (≈ 0.698 µM) in series [6]; 2.13 µg/mL (≈ 4.51 µM) in series [7]; greater than 10 µg/mL in series [8].

The values above are taken from patent US9951058B2, “Compound, pharmaceutically acceptable salt or optical isomer thereof, method for preparing the same, and pharmaceutical composition for prevention or treatment of viral diseases containing same as active ingredient” (Korea Research Institute of Chemical Technology, priority 2012, dated 2018).
